Test results: PubChem BioAssay AID1963865 (Molecular Pharmacology Branch, DTP, NCI, 2024)

System: KRAS PDC multicell spheroid viability
Experiment: Anticancer human tumor 825966-067-R-J1-PDC patient-derived colon carcinoma cell line growth inhibition [KRAS2]
Settings: for IC50: curve of first compound; for viability, T/C: stronger effect = lower value
How it was run: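 KRAS-mutant tumor cells were grown as spheroids with HUVEC endothelial cells and human MSCs as stroma. Targeted agents were tested alone and with KRAS pathway inhibitors. Doses started at or near clinical Cmax, or 10 microM, descending half-log.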

[1] = second compound 0.1 µM, first compound 0.0316 µM
[2] = second compound 0.1 µM, first compound 0.1 µM
[3] = second compound 0.316 µM, first compound 0.0316 µM
[4] = second compound 0.316 µM, first compound 0.1 µM
[5] = second compound 1 µM, first compound 0.0316 µM
[6] = second compound 1 µM, first compound 0.1 µM
[7] = second compound 3.16 µM, first compound 0.0316 µM
[8] = second compound 3.16 µM, first compound 0.1 µM
[9] = second compound 10 µM, first compound 0.0316 µM
[10] = second compound 10 µM, first compound 0.1 µM
[11] = second compound 0.1 µM, first compound 0.316 µM
[12] = second compound 0.1 µM, first compound 1 µM
[13] = second compound 0.1 µM, first compound 3.16 µM
[14] = second compound 0.1 µM, first compound 10 µM
[15] = second compound 0.316 µM, first compound 0.316 µM
[16] = second compound 0.316 µM, first compound 1 µM
[17] = second compound 0.316 µM, first compound 3.16 µM
[18] = second compound 0.316 µM, first compound 10 µM
[19] = second compound 1 µM, first compound 0.316 µM
[20] = second compound 1 µM, first compound 1 µM
[21] = second compound 1 µM, first compound 3.16 µM
[22] = second compound 1 µM, first compound 10 µM
[23] = second compound 3.16 µM, first compound 0.316 µM
[24] = second compound 3.16 µM, first compound 1 µM
[25] = second compound 3.16 µM, first compound 3.16 µM
[26] = second compound 3.16 µM, first compound 10 µM
[27] = second compound 10 µM, first compound 0.316 µM
[28] = second compound 10 µM, first compound 1 µM
[29] = second compound 10 µM, first compound 3.16 µM
[30] = second compound 10 µM, first compound 10 µM
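Also: spheroids exposed to compounds for 7 days.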
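For viability, T/C in this document: 100% = DMSO vehicle control viability.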

Row | Structure (SMILES) | IC50 (second compound 0.1 µM) [nM] | IC50 (second compound 0.316 µM) [nM] | IC50 (second compound 1 µM) [nM] | IC50 (second compound 3.16 µM) [nM] | IC50 (second compound 10 µM) [nM] | viability, T/C [1] [%] | viability, T/C [2] [%] | viability, T/C [3] [%] | viability, T/C [4] [%] | viability, T/C [5] [%] | viability, T/C [6] [%] | viability, T/C [7] [%] | viability, T/C [8] [%] | viability, T/C [9] [%] | viability, T/C [10] [%] | viability, T/C [11] [%] | viability, T/C [12] [%] | viability, T/C [13] [%] | viability, T/C [14] [%] | viability, T/C [15] [%] | other results
1 | CN(C)C/C=C/C(=O)Nc1cc2c(Nc3ccc(F)c(Cl)c3)ncnc2cc1O[C@H]1CCOC1 + CNCc1ccccc1-c1csc(C(C)Nc2nc(C)nc3cc(OC)c(OC)cc23)c1 | > 100 | > 100 | > 100 | > 100 | < 0.316 | 88.8 | 106 | 99.3 | 92.4 | 108 | 106 | 130 | 104 | 1.87 | 2.49 |  |  |  |  |  | viability, T/C (second compound 0.1 µM, first compound 0.000316 µM): 103%; viability, T/C (second compound 0.1 µM, first compound 0.001 µM): 92.3%; viability, T/C (second compound 0.1 µM, first compound 0.00316 µM): 98%; viability, T/C (second compound 0.1 µM, first compound 0.01 µM): 113%; viability, T/C (second compound 0.316 µM, first compound 0.000316 µM): 123%; viability, T/C (second compound 0.316 µM, first compound 0.001 µM): 108%; viability, T/C (second compound 0.316 µM, first compound 0.00316 µM): 107%; viability, T/C (second compound 0.316 µM, first compound 0.01 µM): 105%; viability, T/C (second compound 1 µM, first compound 0.000316 µM): 110%; viability, T/C (second compound 1 µM, first compound 0.001 µM): 101%; viability, T/C (second compound 1 µM, first compound 0.00316 µM): 89.5%; viability, T/C (second compound 1 µM, first compound 0.01 µM): 107%; viability, T/C (second compound 3.16 µM, first compound 0.000316 µM): 128%; viability, T/C (second compound 3.16 µM, first compound 0.001 µM): 113%; viability, T/C (second compound 3.16 µM, first compound 0.00316 µM): 107%; viability, T/C (second compound 3.16 µM, first compound 0.01 µM): 1.05%; viability, T/C (second compound 10 µM, first compound 0.000316 µM): 1.54%; viability, T/C (second compound 10 µM, first compound 0.001 µM): 0.37%; viability, T/C (second compound 10 µM, first compound 0.00316 µM): 0.43%; viability, T/C (second compound 10 µM, first compound 0.01 µM): 1.89%
2 | COC(=O)c1ccc2c(C(=Nc3ccc(N(C)C(=O)CN4CCN(C)CC4)cc3)c3ccccc3)c(O)[nH]c2c1 + CNCc1ccccc1-c1csc(C(C)Nc2nc(C)nc3cc(OC)c(OC)cc23)c1 | 567 | 1180 | 910 | < 31.6 | < 31.6 | 84.2 | 82.4 | 62 | 86.3 | 75.7 | 78.2 | 23 | 38.6 | 2.62 | 0.25 | 77.7 | 23.2 | 0.18 | 0.19 | 97.5 | viability, T/C [16]: 58.4%; viability, T/C [17]: 0.13%; viability, T/C [18]: 0.2%; viability, T/C [19]: 87%; viability, T/C [20]: 47.3%; viability, T/C [21]: 0.9%; viability, T/C [22]: 0.21%; viability, T/C [23]: 0.57%; viability, T/C [24]: 0.22%; viability, T/C [25]: 0.13%; viability, T/C [26]: 0.21%; viability, T/C [27]: 1.09%; viability, T/C [28]: 0.18%; viability, T/C [29]: 0.17%; viability, T/C [30]: 0.26%
3 | O=C(c1cc(Cc2n[nH]c(=O)c3ccccc23)ccc1F)N1CCN(C(=O)C2CC2)CC1 + CNCc1ccccc1-c1csc(C(C)Nc2nc(C)nc3cc(OC)c(OC)cc23)c1 | > 10000 | > 10000 | > 10000 | < 31.6 | < 31.6 | 102 | 90.9 | 90.8 | 87.2 | 112 | 90.3 | 9.5 | 28.8 | 0.23 | 0.27 | 81.1 | 88.5 | 78.6 | 61.2 | 92.6 | viability, T/C [16]: 87.7%; viability, T/C [17]: 77.9%; viability, T/C [18]: 97.6%; viability, T/C [19]: 87.8%; viability, T/C [20]: 91.1%; viability, T/C [21]: 104%; viability, T/C [22]: 111%; viability, T/C [23]: 40.8%; viability, T/C [24]: 15.5%; viability, T/C [25]: 1.24%; viability, T/C [26]: 2.36%; viability, T/C [27]: 0.26%; viability, T/C [28]: 0.23%; viability, T/C [29]: 0.19%; viability, T/C [30]: 0.27%
